Reference: patent US20150164867A1, “METHODS OF IMPROVING LONG-TERM SURVIVAL AND REDUCING HOSPITALIZATION READMISSION RATES FOR SUBJECTS SUFFERING FROM HEPATIC ENCEPHALOPATHY” (Salix Pharmaceuticals, Ltd, priority 2012, published 2015)

Assays:
[1] = system: patients admitted for overt HE; experiment: Chart review of survival outcomes in patients admitted for overt HE; assay type: in vivo, human; settings: for Survival Rates, One Year / Survival Rates, Six Months / Survival Rates, Three Years: overt HE patients; for Survival Rates, One Year: one year after discharge; for Survival Rates, Six Months: six months after discharge, RFX 1200 then 1100 mg/day, LAC 30-120 cc/day; for Survival Rates, Three Years: three years after discharge
Text: The medical charts of outpatient and hospitalized patients admitted for overt HE were examined over a 137-month (about an 11.5-year) window. Information collected included gender, age, ethnicity, post discharge HE management protocol, HE hospitalization number (frequency) and time (days) to transplant or death. […] The lactulose dose (LAC) was 30-120 cc/day, adjusted to acquire two to three loose to soft bowel movements. Time from discharge to death or transplant was reported.
In the study, 185 patients were identified, 106 of which were males, 79 or which were females. The median age was 48.5 years (range: 28-72 years). The ethnic group breakdown was as follows: 66% Caucasian, 12% African American, 18% Hispanic, 4% Other. The mean MELD score was 18.5 points (range: 12-40).

[2] = system: compensated cirrhotic patients with SHE; experiment: Chart review of daily caloric intake in compensated cirrhotic patients with subclinical hepatic encephalopathy; assay type: in vivo, human
Text: The medical charts were reviewed for non-hospitalized patients with compensated cirrhosis with and without the diagnosis of subclinical hepatic encephalopathy. […] All patients were reported to be at baseline Conn score Grade 0-1 HE, and employment status was identified. Information collected included; gender, age, ethnicity, weight/height, exercise and employment status, and daily calorie counts for 14 days. Daily caloric intake was registered with food consumption logs by patients and family. Normal caloric intake was considered at 1600 to 2200 calories/day depending upon dietary requirements. The daily caloric totals were conducted with the Calorie Smart calculator. […] There were 64 patients involved in the study: 29 females, 35 males, age (range 19-68), ethnicity (81% Caucasian, 8% African American, 8% Hispanic, 3% other), and mean MELD 8.5 points (range 6-13). There were no events of occult HE or hospitalizations throughout the review.

[3] = system: patients admitted for overt HE; experiment: Chart review of hospital readmission in cirrhotic patients with overt HE; assay type: in vivo, human
Text: The medical charts of outpatient and hospitalized patients admitted for overt HE were examined over a 137-month (about an 11.5-year) window. Information collected included gender, age, ethnicity, MELD score, post discharge HE management protocol, HE hospitalization number (frequency), time to readmission (days) and health insurance coverage. All patients suffering from infection, renal failure, gastrointestinal bleeding or […] were excluded. Group one consisted of patients discharged with lactulose (LAC) treatment. Group two consisted of patients discharged on rifaximin (RFX) treatment. Group three consisted of patients discharged on rifaximin treatment combined with lactulose treatment (RFX/LAC). […] The lactulose dose (LAC) was 30-120 cc/day, adjusted to acquire two to three loose to soft bowel movements. Time from discharge to readmission was measured. All patients were required to have a follow up visit after discharge and maintain family support and employment. Patients were broken down into compliant and non-compliant groups with outpatient follow-up. Eighty-seven (87) patients were identified as compliant, while forty-nine (49) patients were identified as non-compliant. In the compliant group, there were 51 males and 36 females, with an age range of between 32 and 68 years. The ethnic group breakdown for the compliant group was as follows: 66% Caucasian, 14% African American, 17% Hispanic and 3% other. The mean MELD score of the compliant group was 12.5 points (range: 8-17). In the non-compliant group, there were 29 males and 20 females, with an age range of between 28 and 66 years. The ethnic group breakdown for the non-compliant group was as follows: 64% Caucasian, 18% African American and 18% Hispanic. The mean MELD score of the non-compliant group was 11.5 points (range: 6-18).

[4] = system: species of Staphylococcus, Streptococcus, Enterococcus, and Enterobacteriaceae; settings: in vitro data; cited from earlier work
[5] = relative to lactulose monotherapy or combined therapy

SMILES	Survival Rates, One Year [1] [%]	Survival Rates, Six Months [1] [%]	Survival Rates, Three Years [1] [%]	adverse effect [2]	caloric intake (in words) [2]	number of hospital readmissions ([3]; compliant and non-compliant populations, comparison of LAC, RFX, RFX/LAC groups)	short- and long-term survival ([1]; addition of rifaximin, alone or in combination with lactulose, overt HE)	frequency of hospitalizations [3, 5]	time to hospital readmission [3, 5]	in vitro antibacterial activity [4]
OC[C@H]1O[C@@H](O[C@@H]2[C@@H](CO)OC(O)(CO)[C@H]2O)[C@H](O)[C@@H](O)[C@H]1O (mixture of isomers) [LAC, Lactulose]	46	60	29	bowel bloating culminating in a sensation of decreased appetite	marked decrease	highest				
CO[C@H]1/C=C/O[C@@]2(C)Oc3c(C)c(O)c4c(O)c(c5c(nc6cc(C)ccn65)c4c3C2=O)NC(=O)/C(C)=C\C=C\[C@H](C)[C@H](O)[C@@H](C)[C@@H](O)[C@@H](C)[C@H](OC(C)=O)[C@@H]1C [RFX, Rifaximin]	63	76	51		appeared to maintain daily caloric intake		improvement	less frequent	greater	active
